In patent US7196110B2, “N-substituted tricyclic 3-aminopyrazoles as inhibitors for the treatment of cell proliferative disorders” (Janssen Phamaceutica N.V., priority 2002, dated 2007):
Like-named read-outs stand apart in the source and are kept apart here.

Columns and labels:
PC3 (prostate) = experiment: Anti-cell proliferation in tumor cells (14C-thymidine incorporation), PC3; type: cell-based
Method: (§1) The effect of compounds of the invention on cell proliferation in various tumor cells was tested based on incorporation of ^14C-thymidine into DNA of cells.
(§2) Similar to those described above in 3a, except that different cells, cell growth medium, and growth supplements were used. Human tumor cell lines derived from various human tissue origins (LoVo from colon, H460 from lung, T47D from breast, PC3 from prostate, A375 from melanoma, AsPC1 from pancreas) were obtained from the American Type Culture Collection (ATCC) and cultured under specified conditions required for each cell type, as provided by ATCC. Complete medium was obtained from Cellgro: Iscove's medium with 10% Fetal Bovine Serium (FBS) (Mediatech, Inc., Herndon, Va. 20171, Cat. No. 10-016-CV).
(§3) Tumor cells were seeded at approx. 3000–8000 cells per well in a volume of 100 μl of complete medium. Cells were grown for 24 hours in complete medium, and 1 μl of test compound was serially diluted in 100% DMSO and added to each well. For maximum growth control wells, only 1 μl of 100% DMSO was added. After 24 hours incubation, 20 μl of ^14C-thymidine master mix was added to each well and the ^14C-thymidine master mix was pepared according to the following regimen:
(§4) Cells were incubated for an additional 24 hours at 37° C. in medium containing test compound and ^14C-thymidine. Then, the reaction mixture was discarded and the plate was washed 2 times each with 200 μl PBS. Subsequently, each well on the plate was filled with 200 μl of PBS. The top of the plate was sealed with transparent plate sealer and white plate backing sealers were applied to the bottom of plates. The retained ^14C inside each well was measured using a Packard TopCount.
(§5) In order to test the potency of inhibition of the present compound, IC50 of an individual compound on the inhibition of tumor cell line proliferation was measured using the above procedure. As used herein, said IC50 refers to the concentration of the test compound at which the amount of tumor cell proliferation is reduced by one-half as compared to the maximum growth control wells without the compound.

[1] = target: T1, PDGF-receptor beta enzyme comprising the tyrosine kinase domain (Homo sapiens, UniProt P09619); experiment: Inhibition of PDGF-receptor kinase activity (cell-free, PLC1 peptide, 33P Flashplate); type: biochemical; conditions: PDGF-R kinase activity; for inhibition at 10 µM: compound at 10 uM, read-out: Percent Inhibition @ 10 uM; for IC50: read-out: IC50
T1 construct: from amino acid 545 to 1106 of GenBank Access NO: AAA36427
Summary of the method: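 Recombinant kinase domain (aa 545–1106) phosphorylated a biotinylated PLC1 peptide with 5 μM ATP plus 33P-γ-ATP, in Tris pH 8, MgCl2, Na3VO4 and 1 mM DTT, for 60 min at 30 °C. Retained 33P was counted after washing. IC50 is the concentration halving activity versus no-inhibitor reactions.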

T47D (breast) = experiment: Anti-cell proliferation in tumor cells (14C-thymidine incorporation), T47D; type: cell-based; conditions: Homo sapiens, read-out: IC50 on cell proliferation, T47D
Method: as §1, §2, §3, §4, §5

A375 (melanoma) = experiment: Anti-cell proliferation in tumor cells (14C-thymidine incorporation), A375; type: cell-based
Method: as §1, §2, §3, §4, §5

AsPC1 (pancreas) = experiment: Anti-cell proliferation in tumor cells (14C-thymidine incorporation), AsPC1; type: cell-based
Method: as §1, §2, §3, §4, §5

[2] = Homo sapiens, PC-3; read-out: IC50 on cell proliferation, PC3
[3] = Homo sapiens, A-375; read-out: IC50 on cell proliferation, A375
[4] = Homo sapiens, ASPC1; read-out: IC50 on cell proliferation, AsPC1

T1 sequence (P09619 545-1106): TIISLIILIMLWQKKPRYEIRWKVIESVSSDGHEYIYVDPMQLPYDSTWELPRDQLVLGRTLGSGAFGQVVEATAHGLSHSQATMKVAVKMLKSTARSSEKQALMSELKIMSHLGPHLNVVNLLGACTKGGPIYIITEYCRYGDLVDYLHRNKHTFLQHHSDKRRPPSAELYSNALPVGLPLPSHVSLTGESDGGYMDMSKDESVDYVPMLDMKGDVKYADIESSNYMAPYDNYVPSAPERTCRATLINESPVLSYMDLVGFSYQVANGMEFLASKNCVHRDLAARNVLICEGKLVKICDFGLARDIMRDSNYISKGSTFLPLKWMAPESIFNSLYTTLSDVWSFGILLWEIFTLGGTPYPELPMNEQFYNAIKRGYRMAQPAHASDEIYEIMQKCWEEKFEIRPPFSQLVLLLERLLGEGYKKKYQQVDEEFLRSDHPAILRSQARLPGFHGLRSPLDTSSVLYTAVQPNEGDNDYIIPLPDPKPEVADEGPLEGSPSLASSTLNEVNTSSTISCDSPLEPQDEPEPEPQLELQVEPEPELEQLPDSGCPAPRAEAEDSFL

Row | IC50 (PC3 (prostate); Homo sapiens, PC-3, read-out: IC50 on cell proliferation, PC3) [nM] | IC50 (A375 (melanoma); Homo sapiens, A-375, read-out: IC50 on cell proliferation, A375) [nM] | IC50 (AsPC1 (pancreas); Homo sapiens, ASPC1, read-out: IC50 on cell proliferation, AsPC1) [nM] | Structure (SMILES) | IC50 (PC3 (prostate); [2]) [nM] | inhibition at 10 µM [1] [%] | IC50 [1] [nM] | IC50 (T47D (breast)) [nM] | IC50 (A375 (melanoma); [3]) [nM] | IC50 (AsPC1 (pancreas); [4]) [nM]
1 |  |  |  | COC(=O)c1cccc(Nc2[nH]nc3c2Cc2cc(OC)c(OC)cc2-3)c1 [Compound 11, 3-(6,7-Dimethoxy-2,4-dihydro-indeno[1,2-c]pyrazol-3-ylamino)-benzoic acid methyl ester] | 14 | 97 | 15.7 | 7 | 5 | 30
2 |  |  |  | COc1cc2c(cc1OC)-c1n[nH]c(Nc3ccccc3F)c1C2 [Compound 12, (6,7-Dimethoxy-2,4-dihydro-indeno[1,2-c]pyrazol-3-yl)-(2-fluoro-phenyl)-amine] | 13 | 76 | 56 | 31 | 11 | 77
3 | 20 | 7 | 592 | COc1cc2c(cc1OC)-c1n[nH]c(Nc3cccc(F)c3)c1C2 [Compound 14, (3-Fluoro-phenyl)-(6,7-dimethoxy-2,4-dihydro-indeno[1,2-c]pyrazol-3-yl)-amine] |  | 108 | 1.7 | 32 |  | 
4 |  |  |  | Cc1ccc2c(c1)-c1n[nH]c(Nc3ccccc3)c1C2 [Compound 22, (7-Methyl-2,4-dihydro-indeno[1,2-c]pyrazol-3-yl)-phenyl-amine] | 49500 | 96 | 45 | 381 | 11600 | > 10000
5 |  |  |  | COc1cc2c(cc1OC)-c1n[nH]c(Nc3cccnc3)c1C2 [Compound 30, (6,7-Dimethoxy-2,4-dihydro-indeno[1,2-c]pyrazol-3-yl)-pyridin-3-yl-amine] | 175 | 107 | 16 | 8200 | 507 | > 10000
6 |  |  |  | COc1ccc2c(c1)-c1n[nH]c(Nc3ccccc3)c1C2 [Compound 39, (7-Methoxy-2,4-dihydro-indeno[1,2-c]pyrazol-3-yl)-phenyl-amine] | > 10000 | 92 |  | > 10000 | > 50000 | > 10000
7 |  |  |  | COc1cc2c(cc1OC)-c1n[nH]c(NCc3ccccc3)c1C2 [Compound 63, Benzyl-(6,7-dimethoxy-2,4-dihydro-indeno[1,2-c]pyrazol-3-yl)-amine] | 6120 | 94 | 191 | 2600 | 2840 | 10300
8 |  |  |  | COc1cccc(Nc2[nH]nc3c2Cc2cc4c(cc2-3)OCO4)c1 [Compound 97, (2,9-Dihydro-5,7-dioxa-2,3-diaza-cyclopenta[a]-s-indacen-1-yl)-(3-methoxy-phenyl)-amine] | 1680 | 91 | 54 | 622 | 362 | 5670
9 |  |  |  | CN1CCN(c2ccc3c(c2)Cc2c-3n[nH]c2Nc2cccc(Br)c2)CC1 [Compound 122, (3-Bromo-phenyl)-[6-(4-methyl-piperazin-1-yl)-2,4-dihydro-indeno[1,2-c]pyrazol-3-yl]-amine] | 6340 | 70 | 16.2 | 10500 | 14400 | > 10000
10 |  |  |  | COC(=O)c1cccc(Nc2[nH]nc3c2Cc2cc(OCCCN4CCCC4)c(OC)cc2-3)c1 [Compound 157, 3-[7-Methoxy-6-(3-pyrrolidin-1-yl-propoxy)-2,4-dihydro-indeno[1,2-c]pyrazol-3-ylamino]-benzoic acid methyl ester] | 3130 | 85 | 7 | 1900 | 1230 | > 10000
11 |  |  |  | COc1cc2c(cc1OC)-c1n[nH]c(NCc3cc(Cl)ccc3Cl)c1C2 [Compound 330, (2,5-Dichloro-benzyl)-(6,7-dimethoxy-2,4-dihydro-indeno[1,2-c]pyrazol-3-yl)-amine] | 303 | 100 | 16.2 | 355 | 2180 | 1550
12 |  |  |  | COc1cc2c(cc1OC)-c1c(c(Nc3cccc(F)c3)nn1C(=O)CO)C2 [Compound 432, 1-[3-(3-Fluoro-phenylamino)-6,7-dimethoxy-4H-indeno[1,2-c]pyrazol-1-yl]-2-hydroxy-ethanone] | 12 | 95.5 | 38 | 6 | 2 | 40
